Test results as given in patent publication US8030354B2, “Substituted biphenyl GPR40 modulators” (Amgen Inc., priority 2007, dated 2011).

What follows are compounds tested against GPR40 (Homo sapiens, UniProt O14842) (assay: Cell-based aequorin assay (CHO cells stably expressing GPR40 and aequorin)). Conditions: activation of human GPR40, CHO cells, 0.01% HSA.
Design: expressed in transfected cells; host or cells: CHO cells stably transfected with GPR40 and aequorin
In short: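 CHO cells stably co-expressing GPR40 and aequorin, loaded with coelenterazine (1 ug/mL, 2 h, room temperature) in H/HBSS with 20 mM Hepes and 0.01% fatty acid-free HSA. Serially diluted compounds added; luminescence recorded over 20 s. EC50 from dose-response of maximum relative light units.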

GPR40, sequence (O14842 whole entry): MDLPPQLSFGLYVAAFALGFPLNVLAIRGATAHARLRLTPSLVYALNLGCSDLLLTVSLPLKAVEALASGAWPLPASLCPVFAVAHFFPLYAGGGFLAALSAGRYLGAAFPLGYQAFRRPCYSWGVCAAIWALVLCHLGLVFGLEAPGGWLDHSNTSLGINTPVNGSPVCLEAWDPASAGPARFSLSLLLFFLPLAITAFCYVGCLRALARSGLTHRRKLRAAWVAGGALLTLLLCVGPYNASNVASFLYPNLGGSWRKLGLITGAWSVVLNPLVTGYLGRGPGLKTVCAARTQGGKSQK

Row | EC50 [µM] | SMILES
1 | 0.1 to 1 | CCC(CC(=O)O)c1cccc(OCc2ccc(-c3cc(OC)ccc3F)c(C3CCCC3(C)C)c2)c1 (single isomer, unassigned) [Example 98.1]
2 | 1 to 10 | CCC(CC(=O)O)c1cccc(OCc2ccc(-c3cc(OC)ccc3F)c(C3CCCC3(C)C)c2)c1 (single isomer, unassigned) [Example 98.2]
3 | 1 to 10 | COc1ccc(F)c(-c2ccc(COc3cccc(C(CC(=O)O)C4CC4)c3F)cc2C2=CCCC2(C)C)c1 (single isomer, unassigned) [Example 99.1, (3R)-3-Cyclopropyl-3-(3-(((2-(5,5-dimethyl-1-cyclopenten-1-yl)-2′-fluoro-5′-(methyloxy)-1,1′-biphenyl-4-yl)methyl)oxy)-2-fluorophenyl)propanoic acid or (3S)-3-cyclopropyl-3-(3-(((2-(5,5-dimethyl-1-cyclopenten-1-yl)-2′-fluoro-5′-(methyloxy)-1,1′-biphenyl-4-yl)methyl)oxy)-2-fluorophenyl)propanoic acid]
4 | 1 to 10 | CCC(CC(=O)O)c1cccc(OCc2ccc(-c3cc(OC)ccc3F)c(C3CCCC3(C)C)c2)c1F (single isomer, unassigned) [Example 100.1]
5 | 0.1 to 1 | CCC(CC(=O)O)c1cccc(OCc2ccc(-c3cc(OC)ccc3F)c(C3CCCC3(C)C)c2)c1F (single isomer, unassigned) [Example 100.2]
6 | 1 to 10 | CCC(CC(=O)O)c1cc(F)cc(OCc2ccc(-c3cc(OC)ccc3F)c(C3=CCCC3(C)C)c2)c1F (single isomer, unassigned) [Example 101.1, (3S)-3-(3-(((2-(5,5-Dimethyl-1-cyclopenten-1-yl)-2′-fluoro-5′-(methyloxy)-1,1′-biphenyl-4-yl)methyl)oxy)-2,5-difluorophenyl)pentanoic acid or (3R)-3-(3-(((2-(5,5-dimethyl-1-cyclopenten-1-yl)-2′-fluoro-5′-(methyloxy)-1,1′-biphenyl-4-yl)methyl)oxy)-2,5-difluorophenyl)pentanoic acid]
7 | 0.1 to 1 | CCC(CC(=O)O)c1cc(F)cc(OCc2ccc(-c3cc(OC)ccc3F)c(C3CCCC3(C)C)c2)c1F (single isomer, unassigned) [Example 101.2]
8 | 1 to 10 | COc1ccc(F)c(-c2ccc(COc3cccc(C4(CC(=O)O)CCCCC4)c3)cc2C(C)(C)C)c1 [Example 105.2, {1-[3-(2-tert-Butyl-2′-fluoro-5′-methoxy-biphenyl-4-ylmethoxy)-phenyl]-cyclohexyl}-acetic acid]

Second part, the compound before the results:

Row | SMILES | EC50 [µM]
9 | COc1ccc(F)c(-c2ccc(COc3cccc([C@@H](CC(=O)O)C4CC4)c3F)cc2[C@H](OC)C2(C)CC2)c1 (single isomer, unassigned) [Example 83.31] | 1 to 10
10 | COc1cc(-c2ccc(COc3cccc([C@@H](CC(=O)O)C4CC4)c3F)cc2[C@H](OC)C(C)(C)C)c(F)cn1 (single isomer, unassigned) [Example 83.32] | 1 to 10
11 | COc1ccc(F)c(-c2ccc(COc3cccc(C(CC(=O)O)C4CC4)c3F)cc2C(OC)C(C)(C)OC)c1 (single isomer, unassigned) [Example 83.33] | 1 to 10
12 | CCC(CC(=O)O)c1ccc(F)c(OCc2ccc(-c3cc(OC)ccc3F)c(C(C)(C)C)c2)c1 (single isomer, unassigned) [Example 86.2, (3R)-3-(3-(((2-(1,1-Dimethylethyl)-2′-fluoro-5′-(methyloxy)-1,1′-biphenyl-4-yl)methyl)oxy)-4-fluorophenyl)pentanoic acid or (3S)-3-(3-(((2-(1,1-dimethylethyl)-2′-fluoro-5′-(methyloxy)-1,1′-biphenyl-4-yl)methyl)oxy)-4-fluorophenyl)pentanoic acid] | 1 to 10
13 | COc1ccc(F)c(-c2ccc(COc3cccc(C(CC(=O)O)CC(C)C)c3)cc2C(C)(C)C)c1 (single isomer, unassigned) [Example 92, (3R)-3-(3-(((2-(1,1-Dimethylethyl)-2′-fluoro-5′-(methyloxy)-1,1′-biphenyl-4-yl)methyl)oxy)phenyl)-5-methylhexanoic acid or (3S)-3-(3-(((2-(1,1-dimethylethyl)-2′-fluoro-5′-(methyloxy)-1,1′-biphenyl-4-yl)methyl)oxy)phenyl)-5-methylhexanoic acid] | 1 to 10
14 | COc1ccc(F)c(-c2ccc(COc3cccc([C@H](CC(=O)O)C4CC4)c3)cc2C2=CCCC2(C)C)c1 (single isomer, unassigned) [Example 97.1, (3R)-3-Cyclopropyl-3-(3-(((2-(5,5-dimethyl-1-cyclopenten-1-yl)-2′-fluoro-5′-(methyloxy)-1,1′-biphenyl-4-yl)methyl)oxy)phenyl)propanoic acid or (3S)-3-cyclopropyl-3-(3-(((2-(5,5-dimethyl-1-cyclopenten-1-yl)-2′-fluoro-5′-(methyloxy)-1,1′-biphenyl-4-yl)methyl)oxy)phenyl)propanoic acid] | 1 to 10
15 | COc1ccc(F)c(-c2ccc(COc3cccc(C(CC(=O)O)C4CC4)c3)cc2C2CCCC2(C)C)c1 (single isomer, unassigned) [Example 97.2] | 1 to 10
16 | COc1ccc(F)c(-c2ccc(COc3cccc([C@H](CC(=O)O)C4CC4)c3F)cc2[C@H]2CCCC2(C)C)c1 (single isomer, unassigned) [Example 99.3] | 1 to 10
17 | COC[C@H](CC(=O)O)c1cccc(OCc2ccc(-c3cc(OC)ccc3F)c(C(C)(C)C)c2)c1 (single isomer, unassigned) [Example 102, (3R)-3-(3-(((2-(1,1-Dimethylethyl)-2′-fluoro-5′-(methyloxy)-1,1′-biphenyl-4-yl)methyl)oxy)phenyl)-4-(methyloxy)butanoic acid or (3S)-3-(3-(((2-(1,1-dimethylethyl)-2′-fluoro-5′-(methyloxy)-1,1′-biphenyl-4-yl)methyl)oxy)phenyl)-4-(methyloxy)butanoic acid] | 0.1 to 1
18 | COc1cccc(-c2ccc(COc3cccc(CCC(=O)O)c3)cc2C)c1 [Example 1, 3-(3-(((2-Methyl-3′-(methyloxy)-1,1′-biphenyl-4-yl)methyl)oxy)phenyl)propanoic acid] | 1 to 10
19 | COc1ccc(F)c(-c2ccc(COc3cccc(CCC(=O)O)c3)cc2C)c1 [Example 2, 3-(3-(((2′-Fluoro-2-methyl-5′-(methyloxy)-1,1′-biphenyl-4-yl)methyl)oxy)phenyl)propanoic acid] | 0.1 to 1
20 | CCCCOc1ccc(OC)cc1-c1ccc(COc2cccc(CCC(=O)O)c2)cc1C [Example 4, 3-(3-(((2′-(Butyloxy)-2-methyl-5′-(methyloxy)-1,1′-biphenyl-4-yl)methyl)oxy)phenyl)propanoic acid] | 1 to 10
21 | CCCCOc1cc(COc2cccc(CCC(=O)O)c2)ccc1-c1cc(OC)ccc1F [Example 13, 3-(3-(((2-(Butyloxy)-2′-fluoro-5′-(methyloxy)-1,1′-biphenyl-4-yl)methyl)oxy)phenyl)propanoic acid] | 1 to 10
22 | COc1cccc(-c2ccc(COc3cccc(CCC(=O)O)c3)cc2C(C)(C)C)c1 [Example 40, 3-(3-(((2-(1,1-Dimethylethyl)-3′-(methyloxy)-1,1′-biphenyl-4-yl)methyl)oxy)phenyl)propanoic acid] | 0.1 to 1
23 | CCOc1cccc(-c2ccc(COc3cccc(CCC(=O)O)c3)cc2C(C)(C)C)c1 [Example 41, 3-(3-(((2-(1,1-Dimethylethyl)-3′-(ethyloxy)-1,1′-biphenyl-4-yl)methyl)oxy)phenyl)propanoic acid] | 1 to 10
24 | COc1ccc(F)c(-c2ccc(COc3cccc(CCC(=O)O)c3)cc2C2CCCC2(C)C)c1 (stereo not shown) [Example 61.1, 3-(3-(((2-(2,2-Dimethylcyclopentyl)-2′-fluoro-5′-(methyloxy)-1,1′-biphenyl-4-yl)methyl)oxy)phenyl)propanoic acid] | 0.1 to 1
25 | CSc1cccc(-c2ccc(COc3cccc(CCC(=O)O)c3)cc2C(C)(C)C)c1 [Example 61.4, 3-(3-(((2-(1,1-Dimethylethyl)-3′-(methylsulfanyl)-1,1′-biphenyl-4-yl)methyl)oxy)phenyl)propanoic acid] | 1 to 10
26 | COc1ccc(F)c(-c2ccc(COc3cccc([C@@H](CC(=O)O)c4ccon4)c3)cc2C2=CCCC2(C)C)c1 [Example 94.1, (3R)-3-(3-(((2-(5,5-Dimethyl-1-cyclopenten-1-yl)-2′-fluoro-5′-(methyloxy)-1,1′-biphenyl-4-yl)methyl)oxy)phenyl)-3-(3-isoxazolyl)propanoic acid] | 1 to 10
27 | COc1ccc(F)c(-c2ccc(COc3cccc([C@@H](CC(=O)O)c4ccon4)c3)cc2C(C)(C)C)c1 [Example 94.2, (3R)-3-(3-(((2-(1,1-Dimethylethyl)-2′-fluoro-5′-(methyloxy)-1,1′-biphenyl-4-yl)methyl)oxy)phenyl)-3-(3-isoxazolyl)propanoic acid] | 1 to 10
28 | COc1ccc(F)c(-c2ccc(COc3cncc(CCC(=O)O)c3)cc2C(C)(C)C)c1 [Example 96, 3-(5-(((2-(1,1-Dimethylethyl)-2′-fluoro-5′-(methyloxy)-1,1′-biphenyl-4-yl)methyl)oxy)-3-pyridinyl)propanoic acid] | 1 to 10
